Laboratory results: PubChem BioAssay (NCI)
≈ marks a conversion by molar mass, not a printed value.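 Growth conditions: 96-well plates. Treatment: test compound, 48 hours, 5 concentrations. Analysis: linear interpolation between bracketing concentrations; unreached endpoints set to highest concentration. The concentration for 50% growth inhibition is given as GI50. TGI denotes the concentration required for complete inhibition of growth.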

What was measured:
Experiment in all cases: NCI tumour cell line growth inhibition, 48 h
[1] = test system: NCI-H23 lung
[2] = test system: A498 renal
[3] = test system: SK-MEL-28 melanoma
[4] = test system: HS 578T breast
[5] = test system: 786-0 renal
[6] = test system: SW-620 colon
[7] = test system: CCRF-CEM leukemia
[8] = test system: SN12C renal
[9] = test system: NCI/ADR-RES ovarian
[10] = test system: COLO 205 colon
[11] = test system: OVCAR-3 ovarian
[12] = test system: HCC-2998 colon
[13] = test system: SF-295 CNS
[14] = test system: HT29 colon
[15] = test system: OVCAR-4 ovarian
[16] = test system: HCT-15 colon
[17] = test system: MDA-MB-231 breast
[18] = test system: T-47D breast
[19] = test system: BT-549 breast
[20] = test system: IGROV1 ovarian
[21] = test system: SF-539 CNS
[22] = test system: LOX IMVI melanoma
[23] = test system: OVCAR-8 ovarian
[24] = test system: SNB-75 CNS
[25] = test system: U251 CNS
[26] = test system: K-562 leukemia
[27] = test system: MDA-MB-435
[28] = test system: KM12 colon

Question: What does the source list for `COc1ccc(N=N/C(=N\NC(=O)c2cc(Br)ccc2O)c2ccc(N(CCC#N)CCC#N)cc2OC)cc1`?
Answer: GI50 [1]: 110 µg/mL (≈ 181 µM); TGI [1]: > 150 µg/mL; GI50 [2]: > 150 µg/mL; TGI [2]: > 150 µg/mL; GI50 [3]: > 150 µg/mL; TGI [3]: > 150 µg/mL; GI50 [4]: 82.5 µg/mL (≈ 136 µM); TGI [4]: > 150 µg/mL; GI50 [5]: 64.6 µg/mL (≈ 107 µM); TGI [5]: > 150 µg/mL; GI50 [6]: > 150 µg/mL; TGI [6]: > 150 µg/mL; GI50 [7]: 57.1 µg/mL (≈ 94.5 µM); TGI [7]: > 150 µg/mL; GI50 [8]: 77.6 µg/mL (≈ 128 µM); TGI [8]: > 150 µg/mL; GI50 [9]: 42 µg/mL (≈ 69.5 µM); TGI [9]: > 150 µg/mL; GI50 [10]: 50.6 µg/mL (≈ 83.8 µM); TGI [10]: > 150 µg/mL; GI50 [11]: 51.4 µg/mL (≈ 85.1 µM); TGI [11]: > 150 µg/mL; GI50 [12]: 28.7 µg/mL (≈ 47.5 µM); TGI [12]: 66.5 µg/mL (≈ 110 µM); GI50 [13]: 73.8 µg/mL (≈ 122 µM); TGI [13]: > 150 µg/mL; GI50 [14]: 40.9 µg/mL (≈ 67.7 µM); TGI [14]: 118 µg/mL (≈ 196 µM); GI50 [15]: 28.5 µg/mL (≈ 47.1 µM); TGI [15]: 76 µg/mL (≈ 126 µM); GI50 [16]: 42 µg/mL (≈ 69.5 µM); TGI [16]: > 150 µg/mL; GI50 [17]: 70.8 µg/mL (≈ 117 µM); TGI [17]: > 150 µg/mL; GI50 [18]: 72.5 µg/mL (≈ 120 µM); TGI [18]: > 150 µg/mL; GI50 [19]: > 150 µg/mL; TGI [19]: > 150 µg/mL; GI50 [20]: 39.6 µg/mL (≈ 65.5 µM); TGI [20]: > 150 µg/mL; GI50 [21]: 80.8 µg/mL (≈ 134 µM); TGI [21]: > 150 µg/mL; GI50 [22]: 53.2 µg/mL (≈ 88 µM); TGI [22]: > 150 µg/mL; GI50 [23]: 47.5 µg/mL (≈ 78.5 µM); TGI [23]: > 150 µg/mL; GI50 [24]: 27.6 µg/mL (≈ 45.6 µM); TGI [24]: 86.8 µg/mL (≈ 144 µM); GI50 [25]: > 150 µg/mL; TGI [25]: > 150 µg/mL; GI50 [26]: 74.9 µg/mL (≈ 124 µM); TGI [26]: > 150 µg/mL; GI50 [27]: > 150 µg/mL; TGI [27]: > 150 µg/mL; GI50 [28]: 44.6 µg/mL (≈ 73.8 µM); TGI [28]: 128 µg/mL (≈ 212 µM)
